# Experimental data reported in publication PMC5218480 (PLoS ONE, 2017).
# Test system: MV-4-11 cells
# Assay: Gene expression microarray analysis (Affymetrix PrimeView) and GSEA
# Type: cell-based, human
# Parameters: RFU PODN (11730768_x_at) / Fold change /veh PODN (11730768_x_at) / RFU LINC00158 (11744669_a_at) / Fold change /veh LINC00158 (11744669_a_at) / RFU DUSP10 (11751237_a_at) / Fold change /veh DUSP10 (11751237_a_at) / RFU ID3 (11757404_x_at) / Fold change /veh ID3 (11757404_x_at) / RFU PLEKHG5 (11737974_s_at) / Fold change /veh PLEKHG5 (11737974_s_at) / RFU LRRC4B (11730491_at) / Fold change /veh LRRC4B (11730491_at) / RFU GIMAP4 (11747438_a_at) / Fold change /veh GIMAP4 (11747438_a_at) / RFU KRT8 (11758183_x_at) / Fold change /veh KRT8 (11758183_x_at) / RFU CNN1 (11734310_a_at) / Fold change /veh CNN1 (11734310_a_at) / RFU VPS37D (11726825_at) / Fold change /veh VPS37D (11726825_at) / RFU C10orf10 (11716522_x_at) / Fold change /veh C10orf10 (11716522_x_at) / RFU KIR2DL2 /// KIR2DL4 /// KIR2DL5A /// KIR2DL5B /// KIR2DS1 /// KIR2DS2 /// KIR2DS3 /// KIR2DS4 /// KIR3DL3 /// KIR3DL3 /// KIR3DS1 (11738374_at) / Fold change /veh KIR2DL2 /// KIR2DL4 /// KIR2DL5A /// KIR2DL5B /// KIR2DS1 /// KIR2DS2 /// KIR2DS3 /// KIR2DS4 /// KIR3DL3 /// KIR3DL3 /// KIR3DS1 (11738374_at) / RFU C1QL1 (11718748_at) / Fold change /veh C1QL1 (11718748_at) / RFU TMPRSS4 (11747572_a_at) / Fold change /veh TMPRSS4 (11747572_a_at) / RFU HAMP (11756126_x_at) / Fold change /veh HAMP (11756126_x_at) / RFU RNFT2 (11725882_a_at) / Fold change /veh RNFT2 (11725882_a_at) / RFU NR4A2 (11747474_a_at) / Fold change /veh NR4A2 (11747474_a_at) / RFU ABCC12 (11746883_a_at) / Fold change /veh ABCC12 (11746883_a_at) / RFU TMEM136 (11760407_x_at) / Fold change /veh TMEM136 (11760407_x_at) / RFU CLDN22 /// WWC2 (11732394_at) / Fold change /veh CLDN22 /// WWC2 (11732394_at) / RFU HLA-DPB1 (11760878_x_at) / Fold change /veh HLA-DPB1 (11760878_x_at) / RFU SPINT1 (11716480_a_at) / Fold change /veh SPINT1 (11716480_a_at) / RFU GAP43 (11754022_s_at) / Fold change /veh GAP43 (11754022_s_at) / RFU A4GNT (11735810_at) / Fold change /veh A4GNT (11735810_at) / RFU PRB3 (11715151_x_at) / Fold change /veh PRB3 (11715151_x_at) / RFU TUBB4B (11761932_at) / Fold change /veh TUBB4B (11761932_at) / RFU CAPN14 (11732068_a_at) / Fold change /veh CAPN14 (11732068_a_at) / RFU TMCC2 (11721928_a_at) / Fold change /veh TMCC2 (11721928_a_at) / RFU IRGQ (11745062_a_at) / Fold change /veh IRGQ (11745062_a_at) / RFU FAM174B (11720279_a_at) / Fold change /veh FAM174B (11720279_a_at) / RFU TMPRSS4 (11748680_a_at) / Fold change /veh TMPRSS4 (11748680_a_at) / RFU FAM212B (11763350_a_at) / Fold change /veh FAM212B (11763350_a_at) / RFU PLEKHG5 (11743358_a_at) / Fold change /veh PLEKHG5 (11743358_a_at) / RFU ZSCAN30 (11745921_a_at) / Fold change /veh ZSCAN30 (11745921_a_at) / RFU CMKLR1 (11741424_a_at) / Fold change /veh CMKLR1 (11741424_a_at) / RFU LOC101060620 /// MAPK8IP1 (11723275_at) / Fold change /veh LOC101060620 /// MAPK8IP1 (11723275_at) / RFU SPTSSB (11747773_x_at) / Fold change /veh SPTSSB (11747773_x_at) / RFU PRSS12 (11739890_at) / Fold change /veh PRSS12 (11739890_at) / RFU BIN1 (11741810_x_at) / Fold change /veh BIN1 (11741810_x_at) / RFU WNT11 (11732464_a_at) / Fold change /veh WNT11 (11732464_a_at) / RFU C10orf10 (11716521_a_at) / Fold change /veh C10orf10 (11716521_a_at) / RFU C5orf56 (11738089_at) / Fold change /veh C5orf56 (11738089_at) / RFU CYB561 (11721691_x_at) / Fold change /veh CYB561 (11721691_x_at) / RFU ANKRD19P (11752326_a_at) / Fold change /veh ANKRD19P (11752326_a_at) / RFU OR2T12 /// OR2T33 /// OR2T8 (11738714_s_at) / Fold change /veh OR2T12 /// OR2T33 /// OR2T8 (11738714_s_at) / RFU VCAN (11748164_a_at) / Fold change /veh VCAN (11748164_a_at) / RFU JSRP1 (11732532_at) / Fold change /veh JSRP1 (11732532_at) / RFU KRTAP10-11 (11738290_x_at) / Fold change /veh KRTAP10-11 (11738290_x_at) / RFU MYO3A (11730013_a_at) / Fold change /veh MYO3A (11730013_a_at) / RFU EBF3 (11725865_a_at) / Fold change /veh EBF3 (11725865_a_at) / RFU CAMK2N1 (11719241_x_at) / Fold change /veh CAMK2N1 (11719241_x_at) / RFU C5orf56 (11738088_a_at) / Fold change /veh C5orf56 (11738088_a_at) / RFU OLFML3 (11715873_a_at) / Fold change /veh OLFML3 (11715873_a_at) / RFU LOC100653217 /// NTM (11731650_a_at) / Fold change /veh LOC100653217 /// NTM (11731650_a_at) / RFU MAPK11 (11762145_a_at) / Fold change /veh MAPK11 (11762145_a_at) / RFU FIZ1 (11724087_x_at) / Fold change /veh FIZ1 (11724087_x_at) / RFU OASL (11726364_x_at) / Fold change /veh OASL (11726364_x_at) / RFU SOX15 (11748057_x_at) / Fold change /veh SOX15 (11748057_x_at) / RFU CD79A (11719716_a_at) / Fold change /veh CD79A (11719716_a_at) / RFU HIST1H1D (11736915_at) / Fold change /veh HIST1H1D (11736915_at) / RFU CASKIN2 (11723855_a_at) / Fold change /veh CASKIN2 (11723855_a_at) / RFU LOC730098 (11760151_x_at) / Fold change /veh LOC730098 (11760151_x_at) / RFU OR4N2 (11742367_at) / Fold change /veh OR4N2 (11742367_at) / RFU PRRT2 (11749266_a_at) / Fold change /veh PRRT2 (11749266_a_at) / RFU SNX32 (11753110_a_at) / Fold change /veh SNX32 (11753110_a_at) / RFU CDHR5 (11726645_a_at) / Fold change /veh CDHR5 (11726645_a_at) / RFU RCAN1 (11760418_a_at) / Fold change /veh RCAN1 (11760418_a_at) / RFU FAM167A (11723789_a_at) / Fold change /veh FAM167A (11723789_a_at) / RFU FAM26E (11764081_at) / Fold change /veh FAM26E (11764081_at) / RFU ISYNA1 (11749810_s_at) / Fold change /veh ISYNA1 (11749810_s_at) / RFU ACY1 (11761880_at) / Fold change /veh ACY1 (11761880_at) / RFU 11764098_at / Fold change /veh 11764098_at / RFU SAMD14 (11745864_x_at) / Fold change /veh SAMD14 (11745864_x_at) / RFU NPB (11741838_a_at) / Fold change /veh NPB (11741838_a_at) / RFU TMPRSS6 (11731388_a_at) / Fold change /veh TMPRSS6 (11731388_a_at) / RFU KRTAP10-2 (11738614_at) / Fold change /veh KRTAP10-2 (11738614_at) / RFU ARHGAP8 /// PRR5-ARHGAP8 (11727945_x_at) / Fold change /veh ARHGAP8 /// PRR5-ARHGAP8 (11727945_x_at) / RFU KRTAP5-7 /// NADSYN1 (11734609_at) / Fold change /veh KRTAP5-7 /// NADSYN1 (11734609_at) / RFU RASL12 (11751679_a_at) / Fold change /veh RASL12 (11751679_a_at) / RFU CDKN2B (11736163_a_at) / Fold change /veh CDKN2B (11736163_a_at) / RFU PRF1 (11729649_at) / Fold change /veh PRF1 (11729649_at) / RFU, ZNF638 /// ZNF638-IT1 / Fold change vs veh, ZNF638 /// ZNF638-IT1 / RFU, PANK3 / Fold change vs veh, PANK3 / RFU, SH3YL1 / Fold change vs veh, SH3YL1 / RFU, ZEB2 / Fold change vs veh, ZEB2 / RFU, NRIP1 / Fold change vs veh, NRIP1 / RFU, PTTG1IP / Fold change vs veh, PTTG1IP / RFU, CAPN2 / Fold change vs veh, CAPN2 / RFU, MED14 / Fold change vs veh, MED14 / RFU, SNORA58 / Fold change vs veh, SNORA58 / RFU, C1orf63 / Fold change vs veh, C1orf63 / RFU, LRRFIP1 / Fold change vs veh, LRRFIP1 / RFU, NDUFAF7 / Fold change vs veh, NDUFAF7 / RFU, SLC12A2 / Fold change vs veh, SLC12A2 / RFU, IBTK / Fold change vs veh, IBTK / RFU, ESF1 / Fold change vs veh, ESF1 / Fold change vs veh, TMEM50B / RFU, TAOK1 / Fold change vs veh, TAOK1 / RFU, ACBD3 / Fold change vs veh, ACBD3 / RFU, TMA16 / Fold change vs veh, TMA16 / RFU, RWDD3 / Fold change vs veh, RWDD3 / RFU, BCAT1 / Fold change vs veh, BCAT1 / RFU, EDEM3 / Fold change vs veh, EDEM3 / RFU, TMEM33 / Fold change vs veh, TMEM33 / RFU, WDR75 / Fold change vs veh, WDR75 / RFU, AHCTF1 / Fold change vs veh, AHCTF1 / RFU, TFRC / Fold change vs veh, TFRC / RFU, ZDHHC17 / Fold change vs veh, ZDHHC17 / RFU, NOM1 / Fold change vs veh, NOM1 / RFU, ARL8B / Fold change vs veh, ARL8B / RFU, ZBTB11 / Fold change vs veh, ZBTB11 / RFU, TAMM41 / Fold change vs veh, TAMM41 / RFU, KIAA1704 /// LOC100996395 / Fold change vs veh, KIAA1704 /// LOC100996395 / RFU, ING1 / Fold change vs veh, ING1 / RFU, TRMT61B / Fold change vs veh, TRMT61B / RFU, FUBP3 / Fold change vs veh, FUBP3 / RFU, TP53 / Fold change vs veh, TP53 / RFU, TNKS2 / Fold change vs veh, TNKS2 / RFU, ZFP14 / Fold change vs veh, ZFP14 / RFU, ACTR2 / Fold change vs veh, ACTR2 / RFU, PPP3R1 / Fold change vs veh, PPP3R1 / RFU, PIK3R1 / Fold change vs veh, PIK3R1 / RFU, HNRNPA1 / Fold change vs veh, HNRNPA1 / RFU, RNF170 / Fold change vs veh, RNF170 / RFU, ZNF28 / Fold change vs veh, ZNF28 / RFU, RNGTT / Fold change vs veh, RNGTT / RFU, OGT / Fold change vs veh, OGT / RFU, BRD1 / Fold change vs veh, BRD1 / RFU, MARS / Fold change vs veh, MARS / RFU, ZNF655 / Fold change vs veh, ZNF655 / RFU, FAHD1 / Fold change vs veh, FAHD1 / RFU, BDP1 / Fold change vs veh, BDP1 / RFU, LRRCC1 / Fold change vs veh, LRRCC1 / RFU, ARID1A / Fold change vs veh, ARID1A / RFU, ZNF146 / Fold change vs veh, ZNF146 / RFU, ZNF330 / Fold change vs veh, ZNF330 / RFU, GPN3 / Fold change vs veh, GPN3 / RFU, C9orf123 / Fold change vs veh, C9orf123 / RFU, N4BP2L2 / Fold change vs veh, N4BP2L2 / RFU, ARFIP1 / Fold change vs veh, ARFIP1 / RFU, FAM179B / Fold change vs veh, FAM179B / RFU, BCL10 / Fold change vs veh, BCL10 / RFU, UHRF1BP1L / Fold change vs veh, UHRF1BP1L / RFU, BET1 / Fold change vs veh, BET1 / RFU, CNOT2 / Fold change vs veh, CNOT2 / RFU, ZNF268 / Fold change vs veh, ZNF268 / Fold change vs veh, ZNF507 / RFU, DGCR2 / Fold change vs veh, DGCR2 / RFU, WDSUB1 / Fold change vs veh, WDSUB1 / Fold change vs veh, HSP90B1 /// MIR3652 / RFU, ADSS / Fold change vs veh, ADSS / RFU, GK / Fold change vs veh, GK / RFU, ZNF148 / Fold change vs veh, ZNF148 / RFU, TAF9 / Fold change vs veh, TAF9 / RFU, SLC1A5 / Fold change vs veh, SLC1A5 / RFU, SLMO2 / Fold change vs veh, SLMO2 / RFU, ABCC4 / Fold change vs veh, ABCC4 / RFU, LOC101060439 /// RAP1B / Fold change vs veh, LOC101060439 /// RAP1B / RFU, RFX7 / Fold change vs veh, RFX7 / RFU, GTPBP10 / Fold change vs veh, GTPBP10 / RFU, CNEP1R1 / Fold change vs veh, CNEP1R1 / RFU, BIVM-ERCC5 /// ERCC5 / Fold change vs veh, BIVM-ERCC5 /// ERCC5 / RFU, ILF3 / Fold change vs veh, ILF3 / RFU 11762660_at / Fold change /veh 11762660_at / RFU VCAN (11757783_s_at) / Fold change /veh VCAN (11757783_s_at) / RFU DDX43 (11728927_at) / Fold change /veh DDX43 (11728927_at) / RFU KRT8 (11758188_x_at) / Fold change /veh KRT8 (11758188_x_at) / RFU NKD1 (11759106_at) / Fold change /veh NKD1 (11759106_at) / RFU SRD5A1 (11742802_a_at) / Fold change /veh SRD5A1 (11742802_a_at) / RFU TPSAB1 /// TPSB2 (11721975_s_at) / Fold change /veh TPSAB1 /// TPSB2 (11721975_s_at) / RFU GSTM3 (11746129_a_at) / Fold change /veh GSTM3 (11746129_a_at) / RFU IL23R (11737362_x_at) / Fold change /veh IL23R (11737362_x_at) / RFU TMEM51 (11727254_a_at) / Fold change /veh TMEM51 (11727254_a_at) / RFU PIWIL2 (11732686_x_at) / Fold change /veh PIWIL2 (11732686_x_at) / RFU ORM1 (11744905_x_at) / Fold change /veh ORM1 (11744905_x_at) / RFU CCDC152 (11743942_at) / Fold change /veh CCDC152 (11743942_at) / RFU ECM1 (11717891_a_at) / Fold change /veh ECM1 (11717891_a_at) / RFU IL23R (11748794_a_at) / Fold change /veh IL23R (11748794_a_at) / RFU TNFAIP8L3 (11732012_x_at) / Fold change /veh TNFAIP8L3 (11732012_x_at) / RFU MBOAT4 (11741988_at) / Fold change /veh MBOAT4 (11741988_at) / RFU 11764193_at / Fold change /veh 11764193_at / RFU TMEM53 (11763286_at) / Fold change /veh TMEM53 (11763286_at) / RFU MAGEB2 (11727129_at) / Fold change /veh MAGEB2 (11727129_at) / RFU TMEM200A (11744735_a_at) / Fold change /veh TMEM200A (11744735_a_at) / RFU CCDC152 (11751479_a_at) / Fold change /veh CCDC152 (11751479_a_at) / RFU FAM211A (11726209_a_at) / Fold change /veh FAM211A (11726209_a_at) / RFU RGS16 (11746705_a_at) / Fold change /veh RGS16 (11746705_a_at) / RFU VCAN (11755009_s_at) / Fold change /veh VCAN (11755009_s_at) / RFU RHOB (11743442_s_at) / Fold change /veh RHOB (11743442_s_at) / RFU RGS16 (11720943_a_at) / Fold change /veh RGS16 (11720943_a_at) / RFU RGS16 (11720944_at) / Fold change /veh RGS16 (11720944_at) / RFU, VPS4B / Fold change vs veh, VPS4B / RFU, CREB1 / Fold change vs veh, CREB1 / RFU, DNAJC13 / Fold change vs veh, DNAJC13 / RFU, GNAQ / Fold change vs veh, GNAQ / RFU, CDK5R1 / Fold change vs veh, CDK5R1 / RFU, ZRANB3 / Fold change vs veh, ZRANB3 / RFU, CUL4A / Fold change vs veh, CUL4A / RFU, CCNY / Fold change vs veh, CCNY / RFU, UFL1 / Fold change vs veh, UFL1 / RFU, COG3 / Fold change vs veh, COG3 / RFU, DIAPH2 / Fold change vs veh, DIAPH2 / RFU, SKA2 / Fold change vs veh, SKA2 / RFU, AFF3 / Fold change vs veh, AFF3 / RFU, LMF1 / Fold change vs veh, LMF1 / RFU, IPO11 / Fold change vs veh, IPO11 / RFU, DFFB / Fold change vs veh, DFFB / RFU, FOXP1 / Fold change vs veh, FOXP1 / RFU, CARD8 / Fold change vs veh, CARD8 / RFU, STRN3 / Fold change vs veh, STRN3 / RFU, ADK / Fold change vs veh, ADK / RFU, RASSF2 / Fold change vs veh, RASSF2 / RFU, WIPF1 / Fold change vs veh, WIPF1 / RFU, LARP1B / Fold change vs veh, LARP1B / RFU, RASA1 / Fold change vs veh, RASA1 / RFU, RB1 / Fold change vs veh, RB1 / RFU, PPFIA1 / Fold change vs veh, PPFIA1 / RFU, MAT2A / Fold change vs veh, MAT2A / RFU, CCT5 / Fold change vs veh, CCT5 / RFU, WDR92 / Fold change vs veh, WDR92 / RFU, CUX1 / Fold change vs veh, CUX1 / RFU, TTC7A / Fold change vs veh, TTC7A / RFU, TMEM135 / Fold change vs veh, TMEM135 / RFU, DEPTOR / Fold change vs veh, DEPTOR / RFU, CPM / Fold change vs veh, CPM / RFU, DNAJB6 / Fold change vs veh, DNAJB6 / RFU, CACNA2D3 / Fold change vs veh, CACNA2D3 / RFU, DTX4 / Fold change vs veh, DTX4 / RFU, TFCP2 / Fold change vs veh, TFCP2 / RFU, GMCL1 /// GMCL1P1 / Fold change vs veh, GMCL1 /// GMCL1P1 / RFU, AEBP2 / Fold change vs veh, AEBP2 / RFU, SNHG1 /// SNORD22 /// SNORD25 /// SNORD26 /// SNORD27 /// SNORD28 /// SNORD29 /// SNORD31 / Fold change vs veh, SNHG1 /// SNORD22 /// SNORD25 /// SNORD26 /// SNORD27 /// SNORD28 /// SNORD29 /// SNORD31 / Fold change (Aza/veh), C12orf56 (ProbeSet 11735607_a_at) / Fold change (ACY-1035/veh), C12orf56 (ProbeSet 11735607_a_at) / Fold change (Aza/veh), FGFR1OP (ProbeSet 11751329_s_at) / Fold change (ACY-1035/veh), FGFR1OP (ProbeSet 11751329_s_at) / Fold change (Aza/veh), VPS36 (ProbeSet 11739960_a_at) / Fold change (ACY-1035/veh), VPS36 (ProbeSet 11739960_a_at) / RFU SYPL1 (11715823_x_at) / Fold change /veh SYPL1 (11715823_x_at) / RFU IGFBP7 (11715501_s_at) / Fold change /veh IGFBP7 (11715501_s_at) / RFU REEP3 (11722064_at) / Fold change /veh REEP3 (11722064_at) / RFU IGLL1 (11728026_x_at) / Fold change /veh IGLL1 (11728026_x_at): dose or concentration left out as unconfirmed
# Conditions: ProbeSet 11722302_a_at; LIST B
smiles,measurement,value
Nc1ccc(-c2cccs2)cc1NC(=O)c1ccc2c(c1)cc(C1CC1)n2CCN1CCOCC1 [ACY-1035],"Fold change vs veh, LRRFIP1",0.98
